Measured values from PMC11938273 (Journal of Chemical Information and Modeling, 2025).
Where two headings read alike, the source gives them in different places. *1 amine or outer side, *2 acyl side, *3 side chain or, on linkers, in order; H or OH if unused. Where a SMILES comes first, the peptide text is derived from it. Bridges are numbered along the chain shown (N, C = ends). Roman numbers before positions name the chains, in order. [ ]: non-standard residue; d: D form. Actinocin(9to1) = Cc1c2oc3c(C)ccc(C(=O)[*:1])c3nc-2c(C(=O)[*:2])c(N)c1=O; NMeV = CN[C@H](C(=O)O)C(C)C; Sar = CNCC(=O)O

Legend:
[1] = mouse, in vivo
[2] = in vivo; cited from earlier work

For COC(=O)[C@H]1[C@@H](c2ccc(I)cc2)C[C@@H]2CC[C@H]1N2C/C=C/I [Me@IPICIT, Methyl (1R,2S,3S,5S)-3-(4-iodophenyl)-8-[(2E)-3-iodo-2-propen-1-yl]-8-azabicyclo [3.2.1]octane-2-carboxylate], the CNS status [1] was “Positive”.

In the case of CC[C@]1(O)C[C@H]2CN(CCc3c([nH]c4ccccc34)[C@@](C(=O)OC)(c3cc4c(cc3OC)N(C=O)[C@H]3[C@@](O)(C(=O)OC)[C@H](OC(C)=O)[C@]5(CC)C=CCN6CC[C@]43[C@@H]65)C2)C1 [Vincristine, (3aR,3a1R,4R,5S,5aR,10bR)-Methyl 4-acetoxy-3a-ethyl-9-((5S,7S,9S)-5-ethyl-5-hydroxy-9-(methoxycarbonyl)-2,4,5,6,7,8,9,10-octahydro-1 H-3,7-methano[1]azacycloundecino[5,4-b]indol-9-yl)-6-formyl-5-hydroxy-8-methoxy3a,3a1,4,5,5a,6,11,12-octahydro-1 H-indolizino[8,1-cd]carbazole-5-carboxylate], the CNS status [2] is listed as “Efflux transporter substrate”.

For COC(=O)[C@H]1[C@@H](c2ccc(C)cc2)C[C@@H]2CC[C@H]1N2C/C=C/I [PE2i, (1R,2S,3S,5S)-methyl 8-((E)-3-iodoallyl)-3-(p-tolyl)-8-azabicyclo[3.2.1]octane-2-carboxylate], the CNS status [2] is listed as “Positive”.

In the case of Cc1c2oc3c(C)ccc(C(=O)N[C@@H]4C(=O)N[C@H](C(C)C)C(=O)N5CCC[C@H]5C(=O)N(C)CC(=O)N(C)[C@@H](C(C)C)C(=O)O[C@@H]4C)c3nc-2c(C(=O)N[C@@H]2C(=O)N[C@H](C(C)C)C(=O)N3CCC[C@H]3C(=O)N(C)CC(=O)N(C)[C@@H](C(C)C)C(=O)O[C@@H]2C)c(N)c1=O [Actinomycin D] (I: T[dV]P[Sar][NMeV] / II: T[dV]P[Sar][NMeV]; ester I:1-I:C, II:1-II:C; linker I:N-II:N via Actinocin(9to1)), the CNS status [2] is given as “Efflux transporter substrate”.

For C=CCN1CCC[C@H]1CNC(=O)c1cc(CCCF)cc(OC)c1OC [Fallypride, (S)-N-((1-allylpyrrolidin-2-yl)methyl)-1-(5-(3-fluoropropyl)-2,3-dimethoxyphenyl)ethenamine], the CNS status [2] is given as “Positive”.

In the case of COc1cc2c(cc1OC)CN(CCc1ccc(NC(=O)c3cc(OC)c(OC)cc3NC(=O)c3cnc4ccccc4c3)cc1)CC2 [Tariquidar, N-[2-({4-[2-(6,7-Dimethoxy-3,4-dihydro-2(1H)-isoquinolinyl)ethyl]phenyl}carbamoyl)-4,5-dimethoxyphenyl]-3-quinolinecarboxamide], the CNS status [2] is given as “Efflux transporter substrate”.

For CNC(=O)Oc1ccc2c(c1)[C@]1(C)CCN(C)[C@@H]1N2C [Physostigmine, (3aS,8aR)-1,3a,8-trimethyl-1,2,3,3a,8,8a-hexahydropyrrolo[2,3-b]indol-5-yl methylcarbamate], the CNS status [2] is listed as “Positive”.

For CCOC(=O)c1ncn2c1CN(C)C(=O)c1cc(N=[N+]=[N-])ccc1-2 [Azidomazenil, Ethyl-8-azido-5-methyl-6-oxo-4H-imidazo[1,5-a][1,4]benzodiazepine-3-carboxylate], the CNS status [2] is listed as “Positive”.

In the case of O=S(=O)(O)CCS [Mesna (Coenzyme M), 2-mercaptoethane sulfonic acid], the CNS status [2] is listed as “Negative”.

For COc1ccc(OC)c(CN(C(C)=O)c2cc(F)ccc2Oc2ccccc2)c1 [DAA1106, N-(2,5-dimethoxybenzyl)-N-(5-fluoro-2-phenoxyphenyl)acetamide], the CNS status [2] is given as “Positive”.

For C[C@H](N)[C@H](O)c1cccc(O)c1 (racemic) [Metaraminol, rac-3-((1R,2S)-2-amino-1-hydroxypropyl)phenol], the CNS status [2] is listed as “Negative”.

For COc1cc([C@@H]2c3cc4c(cc3[C@@H](O[C@@H]3O[C@@H]5CO[C@@H](c6cccs6)O[C@H]5[C@H](O)[C@H]3O)[C@H]3COC(=O)[C@H]23)OCO4)cc(OC)c1O [Teniposide, (5S,5aR,8aR,9R)-9-(4-Hydroxy-3,5-dimethoxyphenyl)-8-oxo-5,5a,6,8,8a,9-hexahydrofuro[3′,4′:6,7]naphtho[2,3-d][1,3]dioxol-5-yl 4,6-O-(2-thienylmethylene)-β-D-glucopyranoside], the CNS status [2] is given as “Efflux transporter substrate”.

In the case of CCOc1nc2cccc(C(=O)O)c2n1Cc1ccc(-c2ccccc2-c2nnn[nH]2)cc1 [Candesartan, 1-((2'-(2H-tetrazol-5-yl)-[1,1'-biphenyl]-4-yl)methyl)-2-ethoxy-1H-benzo[d]imidazole-7-carboxylic acid], the CNS status [2] is listed as “Negative”.

For CCN(CC)C(=O)/C(C#N)=C/c1cc(O)c(O)c([N+](=O)[O-])c1 [Entacapone, (2E)-2-Cyano-3-(3,4-dihydroxy-5-nitrophenyl)-N,N-diethylacrylamide], the CNS status [2] is listed as “Negative”.

For CCOc1ccc(-c2nc3cc(-c4nc5cc(N6CCN(C)CC6)ccc5[nH]4)ccc3[nH]2)cc1 [Hoechst 33342, 2′-(4-Ethoxyphenyl)-5-(4-methyl-1-piperazinyl)-1H,1′H-2,5′-bibenzimidazole], the CNS status [2] is listed as “Efflux transporter substrate”.

For COc1cccc2c1C(=O)c1c(O)c3c(c(O)c1C2=O)C[C@@](O)(C(=O)CO)C[C@@H]3O[C@H]1C[C@H](N)[C@@H](O)[C@H](C)O1 [Epirubicin, (1S,3S)-3-Glycoloyl-3,5,12-trihydroxy-10-methoxy-6,11-dioxo-1,2,3,4,6,11-hexahydro-1-tetracenyl 3-amino-2,3,6-trideoxy-α-L-arabino-hexopyranoside], the CNS status [2] is given as “Efflux transporter substrate”.

In the case of CN1[C@H]2CC[C@@H]1[C@@H](c1cc(-c3ccccc3)no1)[C@@H](c1ccc(Cl)cc1)C2 [beta-CPPIT, 5-((1R,2S,3S,5S)-3-(4-chlorophenyl)-8-methyl-8-azabicyclo[3.2.1]octan-2-yl)-3-phenylisoxazole], the CNS status [2] is listed as “Positive”.
